Source: patent US20240335395A1, “COMPOSITIONS AND METHODS FOR PREVENTING AND/OR TREATING DISEASE ASSOCIATED WITH IL-23 EXPRESSION” (ALLSPIM, priority 2021, published 2024)

Assays:
IL-17 = IL-17 gene expression in RA-patient synovial cells (RT-qPCR); format: cell-based, human; details: 2 h
Description: Synovial fluid was freshly collected from 20 patients with rheumatoid arthritis (RA) by arthrocentesis. At two hours after treatment or not with 2,4-D, RA-patient synovial cells were directly lysed using TRIzol reagent (Invitrogen, USA) followed by RNA extraction according to the manufacturer's protocol. Finally, RNA was dissolved in 10 μL DEPC-treated water, quantified on a NanoDrop 2000 spectrophotometer (Thermo Scientific Inc., USA), and reverse-transcribed using the Super Script III First-Strand Synthesis System for RT-PCR kit (Thermo Scientific, USA) according to the manufacturer's protocol. PCR was performed in duplicate using SYBR Green qPCR master mix (Takara Biomedical Technology Co., Ltd, Dalian, China) on an ABI 7500 Real-Time PCR System (Thermo, USA). The cycling program was as follows: denaturation at 95° C. for 15 s, 40 cycles of 95° C. for 15 s and extension at 60° C. for 60 s, followed by melt curve generation. The ΔΔCT method was used to quantify relative mRNA levels as described in Example 1 above. The primer sequences specific for human IL-17 genes (hu-IL-17 Forward: 5′-[…]-3′; hu-IL-17 Reverse: 5′-GGCACTTTGCCTCCCAGAT-3′) (SEQ ID NOs 8 and 9, respectively) and IL-23 (see Example 1, above) were used.

IL-23 gene (IL-23p19) = experiment: IL-23 gene expression (RT-qPCR) in LPS-stimulated THP-1 cell culture; format: cell-based, human; details: THP-1, LPS 10 ng/ml, 2 h
Description: The THP-1 cell line (TIB-202) was obtained from the American Type Culture Collection (ATCC, USA), grown in RPMI 1640 culture medium (Gibco) supplemented with 10% fetal bovine serum (Gibco, UK), 50 U/mL penicillin-streptomycin (Gibco), and 0.05 mM 2-Mercaptoethanol (Gibco). Cultured cells were plated into culture plates in appropriate volumes with a cell density of 500,000 cells/mL.
At two hours after stimulation with LPS (10 ng/ml) in the presence or not of 2,4-D at increasing concentrations, THP-1 cells from each experimental condition were directly lysed using TRIzol reagent (Invitrogen, USA) followed by RNA extraction according to the manufacturer's instructions. Finally, RNA was dissolved in 10 μL diethyl pyrocarbonate (DEPC)-treated water, quantified on a NanoDrop 2000 spectrophotometer (Thermo Scientific Inc., USA), and reverse-transcribed using the Super Script III First-Strand Synthesis System for RT-PCR kit (Thermo Scientific, USA) according to the manufacturer's instructions.
PCR was performed in duplicate using SYBR Green qPCR master mix (Takara Biomedical Technology Co., Ltd, Dalian, China) on an ABI 7500 Real-Time PCR System (Thermo, USA). […] The ΔΔCT method was used to quantify relative mRNA levels as described in User Bulletin #2 for the ABI PRISM 7700 Sequence Detection System (Applied Biosystems, 2001). […]

[1] = test system: cell surface markers CD80, Ly6C, CD206, CXCR4, CCR2; experiment: Endometriosis mouse model, cell surface marker expression of peritoneal immune cells (flow cytometry); format: in vivo; details: 50 mg/kg/day, 5 times a week, 6 weeks
Description: Experimental design. Balb/C female mice (10 weeks old) were habituated for 3 days to take a jelly containing (group EDT+2,4D) or not (groups No EDT and EDT+Vehicle) the compound. Surgical implantation of endometrial tissue from syngenic female in peritoneum, was performed at day 0 for groups EDT+Vehicle and EDT+2,4D. […] The vehicle or treatment was then given 5 times a week (50 mg/kg/day) during 6 weeks. Mice were then sacrificed and the peritoneal inflammation was assessed. All the details of the protocol are depicted in FIG. 27. Cytokine measurement in cell-free peritoneal lavage. After mice were euthanized, 5 mL of PBS was injected into the peritoneal cavity and the diluted peritoneal fluid containing the cells was then retrieved. The cells were pelleted by centrifugation at 500×g 4° C. and the supernatant (cell-free peritoneal fluid) was frozen at −80° C. for subsequent cytokine concentration measurement by ELISA. Cytokine concentration was assessed by ELISA kit in the peritoneal fluid (ThermoFisher, Mouse IL-1β, IL6 and TNFalpha Uncoated ELISA). […] The optical density was read with the Clariostar Plus Microplate Reader (BMG LABTECH), through the Clario software. Concentrations were calculated from a standard curve according to the manufacturer's protocol. Phenotypic study of immune cells from the peritoneal cavity assessed by flow cytometry. The pelleted peritoneal cells were resuspended in PBS-2% FBS and counted. One million cells were stained with the following fluorophore-conjugated antibodies purchased from BioLegend: CD45 BV510, CD11b APC-Cy7, CD11c PE, F4/80 BV711, CD80 PE Cy5, CD206 AF647, Ly-6C, PE-Cy7, CCR2 BV786 et CXCR4 BV421, CD45R/B220 PE Texas-Red, CD3E FITC, NK1.1 BV605 and CD69 PerCP-Cy5.5, Zombie-UV. Cells were incubated 20 min in the dark at 4° C., washed with PBS-2% FBS, and were fixed with paraformaldehyde 4% in 5 mL round-bottom polystyrene tubes (Falcon™ 352054). Compensation was adjusted with Ultracomp beads (ThermoFisher). All the antibodies were diluted at 1/200. All data were collected on LSR Fortessa flow cytometer (BD Bioscience, USA) and analyzed with FlowJo software. Statistical analysis. Outlier values farther than 2 standard deviation from the mean were not taken into account. Kruskal Wallis non-parametric test followed by Dunn's multiple comparisons test were performed for cytokines, One-Way Anova with Tukey's multiple comparisons test for flow cytometry data. *p<0.05, **p<0.01, ***p<0.001.

## COc1cc(O)c(OC)c(O)c1C(=O)/C=C/c1ccccc1 [2,4-D, 2′,4′-dihydroxy-3′,6′-dimethoxychalcone]
IL-17; 1 μg/ml
  decrease of IL-17 expression: 23 fold
IL-17; 5 μg/ml
  inhibition of IL-17 expression: 60 fold
IL-23 gene (IL-23p19)
  IL-23 gene expression: strongly inhibited
[1]
  CCR2: significantly reduced
  CXCR4: tended to decrease
  Ly6C pro-inflammatory marker: tended to decrease
  anti-inflammatory CD206 marker: did not reduce
